For 61 compounds, melting point results are on record in a melting point compilation (Tetko et al.; mined from patent text by program, amines drawn as free bases though some values may be those of a salt).

In general, melting point refers to the temperature, or range, at which the solid turns liquid.

As to `COc1ccc(C[C@H](CC(=O)N2CCOCC2)C(=O)OCc2ccccc2)cc1`, the melting point fell in the range of 77 to 79 °C.

Turning to `CC(C)(C)OC(=O)CC(O)c1ccc(Cl)nc1NC(=O)C(C)(C)C` (stereo unspecified), the melting point lay within 130 to 132 °C.

With `O=C(O)CC(CC(=O)O)Sc1nc2ccccc2s1`, the melting point lay within 153 to 154 °C.

As for `CN1CCCNC1=Nc1ccccc1N1CCOCC1`, the melting point lay in the range of 138 to 139 °C.

`CN(C)c1cccc2c(S(=O)(=O)Nc3ccc(I)nn3)cccc12` yielded a melting point of 176 to 178 °C.

In turn, `COc1ccc2c(C)c(CCOS(C)(=O)=O)c(=O)oc2c1` had a melting point of 174 to 175 °C.

For the compound `O=C(CCC1(C(=O)O)CCCC1)OCc1ccc([N+](=O)[O-])cc1`, the melting point was 78 to 80 °C.

Compound `Cc1cccc(NC(=O)NC(CC(=O)N(CC(=O)OC(C)(C)C)c2ccccc2)c2ccccc2)c1` (racemic) displayed a melting point of 164 °C.

The compound `CC(C)N(CCC(c1ccccc1)c1cc(CO)ccc1OCc1ccccc1)C(C)C` (stereo unspecified) registered a melting point of 86.4 °C.

For the compound `CC(=O)OC1CCC2(C)C(CCC3=C4C(=O)CC(C(C)CCC=C(C)C)C4(C)CCC32)C1` (stereo unspecified), the melting point is 129 to 130 °C.

Compound `CCNC1CCN(c2c(F)cc3c(=O)c(C(=O)O)cn(C4CC4)c3c2OC)CC1C` (stereo unspecified) gave a melting point of 160 to 162 °C.

`CCCCCCCCc1ccc(N=Nc2ccc(OC(=O)CCOCCCCCCC)cc2)cc1` returned a melting point of 42.1 °C.

Regarding `CCOC(c1ccccc1)(c1ccccc1)c1ncn(S(=O)(=O)N(C)C)c1C`, the melting point came to 150 °C.

For `O=C1N[C@H](Cc2ccc(C(F)(F)F)cc2)[C@H](c2ccccc2F)O1` (racemic), the melting point was in the range of 146 to 147 °C.

Compound `CC(=NOCCOc1ccc(C[C@H](Oc2ccc(C)cc2)C(=O)O)cc1)c1ccc(-c2ccccc2)cc1` gave a melting point of 128 to 130 °C.

As to `CCCCCCSCCSc1nc2nc(C)cc(O)n2n1`, the melting point was found to be 126 °C.

Take `CC(C)(C)OC(=O)C(CN)CC(=O)N1CCNCC1` (stereo unspecified): the melting point came out at 142 °C.

Compound `COc1ccccc1-n1c(=O)[nH]c2c(C(N)=O)nc(NC[C@H]3CCCN3)nc21` registered a melting point of 155 to 157 °C.

For `CCc1cc2c(-c3ccccc3Cl)c(NC(=O)C=Cc3cc(OC)c(OC(C)=O)c(OC)c3)cnc2s1`, the melting point was 133 to 135 °C.

`CC(C)P1(=O)c2ccccc2CN1c1ccccc1` (stereo unspecified) had a melting point of 145 to 147 °C.

As for `COc1cc2ncc(C#N)c(Nc3ccc4[nH]c(=O)sc4c3)c2cc1OC`, the melting point is 285 to 287 °C.

In the case of `CCCCCCNC(=O)Oc1ccc2ncccc2c1`, the melting point came out at 89 °C.

Consider `O=C(O)c1cccc(CC(Cn2ccnc2)c2ccc(F)cc2)c1` (stereo unspecified), for which the melting point is 125 to 130 °C.

In the case of `NNC(=O)Nc1cccc2c1C(=O)c1c-2n[nH]c1-c1ccc(N2CCNCC2)cc1`, the melting point amounted to 257 °C.

`Clc1ccc(-c2cn3cc(Br)ccc3n2)cc1` returned a melting point of 210 to 211 °C.

Compound `c1ccc(-c2coc3c2ccc2ccccc23)cc1` displayed a melting point of 98 to 109 °C.

With `C#Cc1cc(Oc2cnc(NC(CO)CO)nc2N)c(C(C)C)cc1OC`, the melting point is 136 to 139 °C.

As to `CS(=O)(=O)Nc1ccc(OCCCNC(=O)c2ccc(Br)cc2)cc1`, the melting point was in the range of 208 to 209 °C.

Compound `CC(C)(C)OC(=O)Nc1c(F)ccc2c1OC(C)(C)O2` registered a melting point of 106 to 107 °C.

`Nc1ccc2nc(-c3ccccc3)oc2c1` returned a melting point of 212 to 214 °C.

`CCc1cc(N(C)C(=O)N2CCN(c3cc(C)cc(C)c3)CC2)c(OC)nc1C`: the melting point fell in the range of 86 to 87 °C.

In the case of `COc1ccc(N(C(=O)CN2C(=O)C(COCc3ccccc3)C(=O)N(c3ccccc3)c3ccccc32)C(C)C)cc1` (stereo unspecified), the melting point fell in the range of 203 to 204 °C.

Take `O=C1c2ccccc2C(Cc2ccnc(F)c2)(Cc2ccnc(F)c2)c2ccccc21`: the melting point lay within 156 to 157 °C.

As to `CCN(CC)C(=O)c1cccc(OC)c1-c1ccccc1`, the melting point lay within 55 to 56 °C.

`COc1cc(-c2nnc3n2CCC[C@]3(Oc2cc(F)c(F)c(F)c2)C(C)(C)O)ccc1-c1cnc(C)o1` showed a melting point of 188 °C.

`CC(C#Cc1ccc(Oc2ccc(F)cc2)s1)N(O)C(N)=O` (stereo unspecified) showed a melting point of 149 to 150 °C.

Compound `O=C(C1CCN(c2ccncc2)CC1)N1CCC(Oc2ccc(Br)cc2)CC1` registered a melting point of 127 to 130 °C.

Compound `CC12CCC(=O)C=C1CCC1C2CCC2(C)C(n3ccnn3)=CCC12` (stereo unspecified) returned a melting point of 118 to 120 °C.

Turning to `CC(=O)Oc1ccc(-c2c3ccccc3c(Br)c3sc(C)c(C)c23)cc1`, the melting point was 190 to 191 °C.

Compound `Cc1[nH]c(-c2ccccc2)c2c1C(c1ccccc1)=NCC(=O)N2` returned a melting point of 310 to 312 °C.

As to `COc1ccc(C(C)(C)C)cc1C(=O)NCCc1ccc(OC)c(S(N)(=O)=O)c1`, the melting point lay in the range of 165 to 168 °C.

On to `CSC12SCC(COC(C)=O)(OS(C)(=O)=O)C(C(=O)OCc3ccc([N+](=O)[O-])cc3)N1C(=O)C2N=[N+]=[N-]` (stereo unspecified), for which the melting point came out at 147 °C.

For `CCCCNc1c(N)c(NCC(C)C)nc(C)c1C(=O)OCC`, the melting point was 34 to 36 °C.

For `CC12CCC(=O)C=C1CCC1C2=CCC2(C)C1CCC2(O)C(=O)CO` (stereo unspecified), the melting point was found to be 248 °C.

The compound `COC(=O)c1c(Cl)nc(N2CCC(O)CC2)nc1NCc1ccc(OC)c(Cl)c1` returned a melting point of 138 to 139 °C.

Compound `O=C(NC(=O)c1ccccc1Cl)Nc1ccc(C(F)(F)F)cc1` returned a melting point of 214 °C.

Compound `CC(=O)Nc1nc(C)c(S(=O)(=O)NCCO)s1` came in with a melting point of 211 °C.

As for `Brc1cn2cncc2s1`, the melting point fell in the range of 77 to 78 °C.

Consider `C=CC[C@@H](C(=O)N[C@H](C(=O)OCc1ccccc1)C(C)(C)C)[C@@H]1OC(C)(C)OC1=O`, for which the melting point was 67 to 70 °C.

With `C=C(c1ccc(I)cc1)C(O)(Cn1cncn1)c1ccccc1Cl` (stereo unspecified), the melting point is 128 to 130 °C.

Consider `CSc1c(CC(C)(C)C(=O)O)n(Cc2ccc(Cl)cc2)c2ccc(F)cc12`, for which the melting point lay in the range of 161 to 163 °C.

The compound `CC(C)(O)C1CCN(Cc2ccc(COc3cccc4c3CN(C3CCC(=O)NC3=O)C4=O)cc2)CC1` (stereo unspecified) had a melting point of 160 to 162 °C.

Consider `CCOC(=O)c1c(N(C)CCO)c2ccc(C)nc2n(CC)c1=O`, for which the melting point fell in the range of 111 to 113 °C.

As for `CN1CCCCC(c2cccc(O)c2)C1=O` (stereo unspecified), the melting point fell in the range of 188 to 191 °C.

For the compound `O=c1ccccn1[C@@H]1c2cc(C(F)(F)C(F)(F)F)ccc2OC(CF)(CF)[C@H]1O` (relative stereo), the melting point was in the range of 162 to 164 °C.

In turn, `Cc1ccccc1S(=O)(=O)NC1CCc2sc(-c3ccc(=O)[nH]n3)cc2C1` (stereo unspecified) had a melting point of 242 to 247 °C.

As for `CC(=O)N(C(C)=O)c1c(C#N)cnn1-c1ncc(C(F)(F)F)cc1Cl`, the melting point lay in the range of 130 to 132 °C.

`Cc1cc(=O)n(Cc2ccccc2)c2cc(OCc3nnn[nH]3)cc(OCc3nnn[nH]3)c12` had a melting point of 246 to 249 °C.

`N#Cc1cccc(C(=O)N2CCN(c3ccc(NC(=O)c4ccccc4-c4ccc(C(F)(F)F)cc4)cc3)CC2)c1`: the melting point lay within 178 to 180 °C.

For the compound `O=C1OCC(CC(F)(F)F)N1c1nc(-c2ccc(Br)cc2)cs1` (stereo unspecified), the melting point is 163 to 165 °C.

With `CN1CCCC1=NCCSc1c[nH]c2ccccc12`, the melting point is 144 to 146 °C.
